Reference: ChEMBL document CHEMBL1158239, “Costaricine, a new antiplasmodial bisbenzylisoquinoline alkaloid from Nectandra salicifolia trunk bark” (J Nat Prod, 1996)
Values after ≈ are worked out from the molar mass of the structure shown.

Legend:
Plasmodium falciparum [1] = assay: Antimalarial activity against chloroquine-sensitive Plasmodium falciparum D6 as [3H]hypoxanthine uptake; assay type: functional, organism-based
Plasmodium falciparum [2] = assay: Antimalarial activity against chloroquine-resistant Plasmodium falciparum W2 as [3H]hypoxanthine uptake; assay type: functional, organism-based

Row | SMILES | IC50 (Plasmodium falciparum [1]) | IC50 (Plasmodium falciparum [2])
1 | COc1ccc2c(c1O)[C@H](Cc1ccc(O)cc1)NCC2 | 4.1 µg/mL (≈ 14.4 µM) | 3.1 µg/mL (≈ 10.9 µM)
2 | COc1ccc2c(c1O)[C@H](Cc1ccc(O)cc1)N(C)CC2 | 4.09 µg/mL (≈ 13.7 µM) | 4.48 µg/mL (≈ 15 µM)
3 | COc1cc2c(cc1OC)-c1c(OC)c(OC)c(OC)c3c1[C@H](C2)NCC3 | 1.51 µg/mL (≈ 4.07 µM) | 1.75 µg/mL (≈ 4.71 µM)
4 | COc1cc2c(cc1O)C[C@H]1c3c(cc(OC)c(OC)c3-2)CCN1C | 7.15 µg/mL (≈ 20.9 µM) | 2.7 µg/mL (≈ 7.91 µM)
5 | COc1ccc2c(c1O)-c1c(OC)c(OC)cc3c1[C@H](C2)NCC3 | 1.99 µg/mL (≈ 6.08 µM) | 1.9 µg/mL (≈ 5.8 µM)
6 | COc1cc2c(cc1O)[C@H](Cc1ccc(O)cc1)N(C)CC2 | 2.73 µg/mL (≈ 9.12 µM) | 3.81 µg/mL (≈ 12.7 µM)
7 | COc1cc2c(cc1OC)[C@]13CCN(C)[C@@H](C2)[C@@H]1CC(=O)C(OC)C3 (some centres not stated) | 7.1 µg/mL (≈ 20.6 µM) | 9.02 µg/mL (≈ 26.1 µM)
8 | COc1ccc(C[C@H]2c3cc(O)c(OC)cc3CCN2C)cc1O [(S)-RETICULINE] | 5.8 µg/mL (≈ 17.6 µM) | 3.65 µg/mL (≈ 11.1 µM)
9 | C[C@@H]1CC[C@H]2[C@@H](C)C(=O)O[C@@H]3O[C@@]4(C)CC[C@@H]1[C@]32OO4 [ARTEMISININ] | 0.0041 µg/mL (≈ 0.0145 µM) | 0.0022 µg/mL (≈ 0.00779 µM)
10 | COc1cc2c(cc1O)C[C@H]1c3c(cc(O)c(OC)c3-2)CCN1C [BOLDINE] | 2.13 µg/mL (≈ 6.51 µM) | 1.47 µg/mL (≈ 4.49 µM)
11 | COc1cc2c(cc1O)[C@@H](Cc1ccc(Oc3cc(C[C@H]4NCCc5cc(OC)c(O)cc54)ccc3OC)cc1)NCC2 [COSTARICINE] | 0.05 µg/mL (≈ 0.0858 µM) | 0.294 µg/mL (≈ 0.505 µM)
12 | COc1cc2c(cc1O)C[C@H]1c3c(cc(OC)c(O)c3-2)CCN1C [ISOBOLDINE] | 0.668 µg/mL (≈ 2.04 µM) | 0.904 µg/mL (≈ 2.76 µM)
13 | COc1ccc2c(c1O)-c1c(OC)c(OC)cc3c1[C@H](C2)N(C)CC3 [ISOCORYDINE] | 1.9 µg/mL (≈ 5.57 µM) | 2.83 µg/mL (≈ 8.29 µM)
14 | COc1cc2c(cc1O)C[C@@H]1NCCc3cc(OC)c(OC)c-2c31 [LAUROTETANINE] | 3.9 µg/mL (≈ 11.9 µM) | 2.53 µg/mL (≈ 7.73 µM)
15 | COc1cc2c(cc1O)C[C@@H]1NCCc3cc(O)c(OC)c-2c31 [NORBOLDINE] | 1.24 µg/mL (≈ 3.96 µM) | 1.68 µg/mL (≈ 5.36 µM)
16 | C=C[C@H]1CN2CC[C@H]1C[C@H]2[C@H](O)c1ccnc2ccc(OC)cc12 [QUININE] | 0.0157 µg/mL (≈ 0.0484 µM) | 0.0388 µg/mL (≈ 0.12 µM)
